Each structure is given as a SMILES string. pIC50: −log10 of the molar value. Calls of active or inactive are those of the source.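 Rule for the calls: active = compounds blocking the small tyrosine phosphatase LMPTP with an IC50 of 20 micromolar or lower; inactive = the rest.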

In this assay the target is Low molecular weight phosphotyrosine protein phosphatase (Homo sapiens) (UniProt P24666). Nature of the assay: LMPTP-A phosphatase inhibitors, analogs, SAR follow-up, orthogonal assay, biochemical, absorbance (AID 686963). To be noted: recombinant LMPTP-A, pNPP absorbance, 50 min.
Chain of Low molecular weight phosphotyrosine protein phosphatase (Homo sapiens) (P24666 whole entry, looked up): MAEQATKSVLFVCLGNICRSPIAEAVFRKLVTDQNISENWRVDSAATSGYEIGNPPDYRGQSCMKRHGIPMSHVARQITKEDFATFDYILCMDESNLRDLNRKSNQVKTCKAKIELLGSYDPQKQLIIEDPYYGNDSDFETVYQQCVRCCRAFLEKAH

With `Cc1cccc(-c2nc(NCCCN3CCOCC3)c3ccccc3n2)c1`, the IC50 (in general, the concentration at which inhibition is half-maximal) was “inactive”.

`Clc1cccc(Cl)c1Cn1cnc(=NCc2ccco2)c2[nH]cnc21`: the pIC50 (as a rule, the negative decadic logarithm of the IC50, by convention in mol/L) was 4.94.

Turning to `c1ccc(-c2cc(NCCN3CCCCC3)c3ccccc3n2)cc1`, the negative logarithm of the IC50 (pIC50) is 5.30.

Regarding `Cc1ccc(-c2nc(NCCN3CCOCC3)c3ccccc3n2)cc1`, the IC50 result is “inactive”.

As for `Fc1ccccc1-c1nc(NCCCN2CCOCC2)c2ccccc2n1`, the IC50 result was “inactive”.

As for `c1ccc(-c2cc(N3CCCCC3)c3ccccc3n2)cc1`, the IC50 entry was “inactive”.

Turning to `Cc1c(CCC(=O)O)c(=O)oc2c(C)c(OCc3ccccc3Cl)ccc12`, the pIC50 is 4.76.

For `c1ccc(-c2nc(NCc3cccnc3)c3ccccc3n2)cc1`, the IC50 result is “inactive”.

Regarding `Fc1ccccc1-c1nc(NC2CCCC2)c2ccccc2n1`, the IC50 result was “inactive”.

On to `O=C(OCCNc1nc(-c2ccccc2)nc2ccccc12)c1cccnc1`, for which the IC50 entry is “inactive”.

Take `CC(C)OCCCNc1nc(-c2ccccc2)nc2ccccc12`: the IC50 result was “inactive”.

As to `Cc1ccc(-c2nc(NCc3cccnc3)c3ccccc3n2)cc1`, the IC50 result is “inactive”.

Regarding `c1ccc(-c2nc(NCCCn3ccnc3)c3ccccc3n2)cc1`, the IC50 entry is “inactive”.

As to `O=C(OCCNc1nc(-c2ccccc2)nc2ccccc12)c1ccncc1`, the IC50 entry was “inactive”.

As for `COc1ccccc1CNc1ncnc2ccsc12`, the IC50 was > 80 µM (inactive).

In the case of `CCc1nc(N)nc(N)c1-c1ccc(Cl)cc1`, the IC50 result was “inactive”.

`Nc1nc(N)c(Cc2ccc(Cl)cc2Cl)c(N)n1`: the negative logarithm of the IC50 (pIC50) was 4.87.

(Values after PubChem BioAssay AID686963 (Sanford-Burnham Center for Chemical Genomics, 2013).)
